Reference: patent publication US11370775B2, “Substituted benzimidazole derivatives as D-amino acid oxidase (DAAO) inhibitors” (NATIONAL TAIWAN UNIVERSITY, priority 2016, dated 2022)

Key:
porcine kidney DAO = target: T1, porcine kidney DAO (Sus scrofa, UniProt P00371); test: pkDAO enzymatic assay (porcine kidney DAO IC50 assay); format: biochemical; conditions: D-alanine substrate, pH 8.3, 37° C., without FAD
T1 construct: purchased Sigma-Aldrich; host or cells: porcine kidney
Method: The DAAO enzymatic activity assay was modified according to the report of Oguri et al (Oguri, S., Screening of d-amino acid oxidase inhibitor by a new multi-assay method. Food chemistry 2007, 100 (2), 616). The DAAO activity was measured by using substrate D-alanine reaction produced hydrogen peroxide (H2O2) to further react with 3-(4-hydroxyphenyl) propionic acid (HPPA). The HPPA were oxidized by H2O2 and peroxidase to become the fluorogenic dimer which was measured to represent the activity of DAAO.
For porcine kidney DAO IC50 assay, the DAO substrate was prepared in 50 mM D-alanine (dissolved in 0.2 M Tris-HCl buffer, pH 8.3). A 100 μl of D-alanine solution was mixed with 4 μl (in 100% dimethyl sulfoxide, DMSO) of different concentrations of candidate compounds shown in tables below ranging from 48.83 μM, 97.66 μM, 195.31 μM, 390.63 μM, 781.25 μM, 1.56 mM, 3.13 mM, 6.25 mM, 12.50 mM, 25.00 mM, and 50.00 mM, with a final DMSO concentration of 0.167% in each reaction concentration. 10 μl of D-alanine and candidate compound mixture was incubated with 220 μl of Reaction Master Mix in black 96 well plate at 37° C. for 5 minutes. The Reaction Master Mix contained 110 μl of 5 U/mL porcine kidney DAO (Sigma-Aldrich, USA) solution (dissolved with 0.2 M Tris-HCl buffer, pH 8.3), 1.1 mL of 15 U/mL peroxidase solution (dissolved with 0.2 M Tris-HCl buffer, pH 8.3), 1.1 mL of 20 mM HPPA solution (dissolved with 0.2 M Tris-HCl buffer, pH 8.3), and 22 ml of 2 M Tris-HCl buffer (pH 8.3) for 110 reaction assays.
Fluorescence intensity (Fs) was measured at 405 nm by irradiation excitation at 320 nm. The higher the DAO enzymatic activity was, the higher the fluorescence intensity. The fluorometric inhibition indicator (Fi) was obtained from the following equation: Fi=(Fs-FDrug)/(FDMSO), where the fluorescent drug blank (FDrug) was measured in the drug mixture solution (using 0.2 M Tris HCl buffer, pH 8.3, without D-alanine). A DMSO blank (FDMSO) was measured under a 100% DMSO solution.
Although FAD is generally included in the reaction mixture in the D-amino acid oxidase assay since it easily dissociates from the holoenzyme, the present method was performed without FAD. The inhibitory effect of DAO inhibitors was compared by using inhibitory concentrations leading to 50% inhibition of DAAO activity (IC50). The IC50 values were calculated by nonlinear regression model using GraphPad Prism, version 5(GraphPad Software, Inc., La Jolla, Calif.).

[1] = target: T2, DAO in SK-N-SH neuroblastoma cells (Homo sapiens, UniProt P14920); test: Cell-based DAO assay in SK-N-SH cells; design: key to Relative DAO activity normalize to DMSO at Final Conc. 100 uM / Relative DAO activity normalize to DMSO at Final Conc. 10 uM: fraction of DMSO-control DAO activity (1 = DMSO); conditions: SK-N-SH 1.25*10^5 cells/well, drug treated for 3.5 hr; for IC50: 50 mM D-serine
T2 construct: endogenous in cells; host or cells: SK-N-SH neuroblastoma cells (ATCC)
T2 sequence (P14920 whole entry): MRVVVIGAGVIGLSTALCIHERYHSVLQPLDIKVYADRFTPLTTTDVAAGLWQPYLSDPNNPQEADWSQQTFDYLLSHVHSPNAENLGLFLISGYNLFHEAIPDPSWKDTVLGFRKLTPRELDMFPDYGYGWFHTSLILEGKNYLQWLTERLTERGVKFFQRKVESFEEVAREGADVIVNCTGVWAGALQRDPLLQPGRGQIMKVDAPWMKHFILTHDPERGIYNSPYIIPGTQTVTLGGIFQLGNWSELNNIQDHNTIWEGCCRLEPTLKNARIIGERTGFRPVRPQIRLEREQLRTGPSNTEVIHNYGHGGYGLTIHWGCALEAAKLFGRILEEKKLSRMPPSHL
Method: The SK-N-SH neuroblastoma cell line was purchased from American Type Culture Collection (ATCC). It was cultured in MEM media (Invitrogen/GIBCO, Rockville, Md.) supplemented with 10% fetal bovine serum, 1×NEAA (Invitrogen/GIBCO) at 37° C. with 5% CO2 in a humidified atmosphere. Cells were trypsinized and plated into a black 96-well plate (NUNC No. 237108) at a density of 125,000 cells/well in 50 μl before cell-based DAO assay.
The cellular DAO activity assay was using a method modified according to the report of Brandish et al. (Brandish, P. E., et al., A cell-based ultra-high-throughput screening assay for identifying inhibitors of D-amino acid oxidase. J Biomol Screen, 2006. 11(5): p. 481-7). SK-N-SH cells were suspended in assay buffers of HANKS buffer solution (Invitrogen/GIBCO No. 14025-092) with 20 mM HEPES. D-serine of (final concentration 50 mM) was added in each well as the substrate for DAO enzyme. The Amplex Red Hydrogen Peroxide/Proxidase Assay Kit (Molecular Probes/Invitrogen, cat. A22188) was used to measure H2O2 production which diffused across the cell membrane into the assay medium after DAO reaction. After seeding cells into black 96-well plate (Nunc No. 237108, Denmark), 50 μl of SK-N-SH cells (125,000 cells/well) was mixed with 50 μl drug solution (2.5 fold of interesting final concentration) and incubate at 37° C. with 5% CO2 in a humidified atmosphere for 30 minutes. After 30 minutes later, 25 μl of a 5 fold mixture containing D-serine, horseradish peroxidase (HRP), and Amplex Red was added into wells containing 100 μl of cell-drugs mixture and incubated at 37° C. with 5% CO2 in a humidified atmosphere for 3 hours. The final concentration of DMSO is below 1%. The fluorescence signal was then detected in SpectraMax M2e microplate reader (Molecular Devices, USA) with excitation at 544 nm and emission at 590 nm. The optimized assay buffer contained a final concentration of 50 mM D-serine, 0.625 units HRP, and 50 μM Amplex Red in a 125 μl assay volume.

T1 sequence (P00371 whole entry): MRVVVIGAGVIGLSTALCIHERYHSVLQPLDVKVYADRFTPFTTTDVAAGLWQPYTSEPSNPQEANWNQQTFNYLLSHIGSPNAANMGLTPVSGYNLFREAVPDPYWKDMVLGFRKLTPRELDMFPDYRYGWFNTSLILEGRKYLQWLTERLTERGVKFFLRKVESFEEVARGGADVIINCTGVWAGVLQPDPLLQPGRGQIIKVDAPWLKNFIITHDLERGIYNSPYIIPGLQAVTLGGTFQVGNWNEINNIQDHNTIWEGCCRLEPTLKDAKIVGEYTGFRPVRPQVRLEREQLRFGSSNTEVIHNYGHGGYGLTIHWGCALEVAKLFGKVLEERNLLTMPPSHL

Row | SMILES | IC50 (porcine kidney DAO) | Relative DAO activity normalize to DMSO at Final Conc. 10 uM [1] | Relative DAO activity normalize to DMSO at Final Conc. 100 uM [1] | IC50 [1]
1 | COc1c(C)cnc(C[S+]([O-])c2nc3ccc(O)cc3[nH]2)c1C (centres unmarked) [RS-D7, reference compound] | 1.19 µM | 1.05 | 0.69 | 141 µM
2 | COc1c(C)cnc(CSc2nc3cc(C(=O)O)ccc3n2CCC2=CCCCC2)c1C [compound 12083, 1-(2-(cyclohex-1-en-1-yl)ethyl)-2-(((4-methoxy-3,5-dimethylpyridin-2-yl)methyl)thio)-1H-benzo[d]imidazole-5-carboxylic acid] | 367 µM | 0.62 | 0.48 | 74.2 µM
